Test results as given in the NIST ThermoML archive (doi:10.1021/je0601457).

Assay: xn = mol fraction of the nth substance listed

c1cnccn1 [pyrazine] + O=C=O
Fluid (supercritical or subcritical phases), Linear displacement technique
Conditions | mass density [kg/m3]
321.55 K, 14590 kPa, x1 = 0.177 | 866
322.35 K, 7410 kPa, x1 = 0.495 | 980
322.35 K, 10310 kPa, x1 = 0.495 | 990
322.35 K, 13000 kPa, x1 = 0.495 | 963
323.35 K, 10030 kPa, x1 = 0.074 | 825
323.35 K, 10240 kPa, x1 = 0.074 | 835
323.35 K, 11900 kPa, x1 = 0.074 | 876
324.65 K, 9340 kPa, x1 = 0.015 | 394
324.65 K, 9620 kPa, x1 = 0.015 | 408
324.65 K, 9830 kPa, x1 = 0.015 | 423
324.65 K, 10970 kPa, x1 = 0.015 | 576
324.65 K, 11380 kPa, x1 = 0.015 | 611
324.65 K, 11620 kPa, x1 = 0.015 | 627
324.65 K, 11760 kPa, x1 = 0.015 | 640
325.85 K, 10170 kPa, x1 = 0.116 | 739
325.85 K, 13140 kPa, x1 = 0.116 | 767
326.15 K, 9900 kPa, x1 = 0.019 | 460
326.15 K, 10520 kPa, x1 = 0.019 | 580
326.15 K, 11140 kPa, x1 = 0.019 | 656
326.15 K, 11520 kPa, x1 = 0.019 | 688
326.15 K, 12310 kPa, x1 = 0.019 | 729
326.65 K, 8860 kPa, x1 = 0.397 | 1023
326.65 K, 11070 kPa, x1 = 0.397 | 1027
326.65 K, 14100 kPa, x1 = 0.397 | 1036
327.25 K, 10170 kPa, x1 = 0.146 | 980
327.25 K, 15900 kPa, x1 = 0.146 | 990
328.15 K, 11830 kPa, x1 = 0.308 | 980
328.15 K, 13760 kPa, x1 = 0.308 | 990
328.15 K, 15340 kPa, x1 = 0.308 | 997
332.95 K, 18030 kPa, x1 = 0.224 | 879
334.05 K, 11550 kPa, x1 = 0.177 | 803
334.05 K, 11900 kPa, x1 = 0.177 | 809
334.05 K, 15590 kPa, x1 = 0.177 | 831
334.75 K, 10340 kPa, x1 = 0.495 | 980
334.75 K, 13550 kPa, x1 = 0.495 | 987
334.75 K, 19410 kPa, x1 = 0.495 | 1002
337.05 K, 11660 kPa, x1 = 0.146 | 760
337.05 K, 15140 kPa, x1 = 0.146 | 792
337.85 K, 12170 kPa, x1 = 0.09 | 738
337.85 K, 12590 kPa, x1 = 0.09 | 752
337.85 K, 15900 kPa, x1 = 0.09 | 815
338.45 K, 11520 kPa, x1 = 0.019 | 475
338.45 K, 11970 kPa, x1 = 0.019 | 512
338.45 K, 12170 kPa, x1 = 0.019 | 526
338.45 K, 12590 kPa, x1 = 0.019 | 565
339.45 K, 12590 kPa, x1 = 0.074 | 708
339.45 K, 13280 kPa, x1 = 0.074 | 750
340.95 K, 12380 kPa, x1 = 0.116 | 693
340.95 K, 15210 kPa, x1 = 0.116 | 739
345.05 K, 12450 kPa, x1 = 0.224 | 823
345.05 K, 19340 kPa, x1 = 0.224 | 858
345.55 K, 10380 kPa, x1 = 0.397 | 995
345.55 K, 12480 kPa, x1 = 0.397 | 999
345.55 K, 12860 kPa, x1 = 0.397 | 1002
347.75 K, 13030 kPa, x1 = 0.177 | 758
347.75 K, 14100 kPa, x1 = 0.177 | 770
347.75 K, 16790 kPa, x1 = 0.177 | 792
348.05 K, 12310 kPa, x1 = 0.308 | 965
348.05 K, 17620 kPa, x1 = 0.308 | 986
348.05 K, 19720 kPa, x1 = 0.308 | 996
348.95 K, 13380 kPa, x1 = 0.09 | 684
348.95 K, 13690 kPa, x1 = 0.09 | 683
348.95 K, 16450 kPa, x1 = 0.09 | 771
350.55 K, 13760 kPa, x1 = 0.116 | 665
350.55 K, 15520 kPa, x1 = 0.116 | 707
350.85 K, 13410 kPa, x1 = 0.146 | 708
351.95 K, 13450 kPa, x1 = 0.074 | 604
351.95 K, 16280 kPa, x1 = 0.074 | 719
352.35 K, 11140 kPa, x1 = 0.019 | 335
352.35 K, 11210 kPa, x1 = 0.019 | 352
352.35 K, 12310 kPa, x1 = 0.019 | 415
352.35 K, 12480 kPa, x1 = 0.019 | 428
352.35 K, 12790 kPa, x1 = 0.019 | 443
360.85 K, 14860 kPa, x1 = 0.116 | 630
360.85 K, 17720 kPa, x1 = 0.116 | 695
362.25 K, 14720 kPa, x1 = 0.177 | 709
362.25 K, 14830 kPa, x1 = 0.177 | 712
362.25 K, 19480 kPa, x1 = 0.177 | 761
362.35 K, 14660 kPa, x1 = 0.224 | 779
362.35 K, 18660 kPa, x1 = 0.224 | 802
365.65 K, 15210 kPa, x1 = 0.09 | 591
366.25 K, 14930 kPa, x1 = 0.074 | 542
366.25 K, 15760 kPa, x1 = 0.074 | 547
366.25 K, 16860 kPa, x1 = 0.074 | 511
369.65 K, 14550 kPa, x1 = 0.397 | 964
369.65 K, 16410 kPa, x1 = 0.397 | 968
369.65 K, 20720 kPa, x1 = 0.397 | 982
372.55 K, 11480 kPa, x1 = 0.495 | 959
372.55 K, 12720 kPa, x1 = 0.495 | 962
372.55 K, 15000 kPa, x1 = 0.495 | 970

linear displacement
Conditions | mass density [kg/m3]
321.55 K, Liquid, x1 = 0.177 | 834
322.35 K, Liquid, x1 = 0.495 | 975
323.35 K, Liquid, x1 = 0.074 | 810
324.65 K, Gas, x1 = 0.015 | 382
325.85 K, Liquid, x1 = 0.116 | 734
326.15 K, Gas, x1 = 0.019 | 442
326.65 K, Liquid, x1 = 0.397 | 1017
327.25 K, Liquid, x1 = 0.146 | 790
328.15 K, Liquid, x1 = 0.308 | 970
332.95 K, Liquid, x1 = 0.224 | 842
334.05 K, Liquid, x1 = 0.177 | 795
334.75 K, Liquid, x1 = 0.495 | 972
337.05 K, Liquid, x1 = 0.146 | 753
337.85 K, Liquid, x1 = 0.09 | 727
338.45 K, Gas, x1 = 0.019 | 431
339.45 K, Liquid, x1 = 0.074 | 695
340.95 K, Liquid, x1 = 0.116 | 684
345.05 K, Liquid, x1 = 0.224 | 816
345.55 K, Liquid, x1 = 0.397 | 991
347.75 K, Liquid, x1 = 0.177 | 751
348.05 K, Liquid, x1 = 0.308 | 957
348.95 K, Liquid, x1 = 0.09 | 672
350.55 K, Liquid, x1 = 0.116 | 651
350.85 K, Liquid, x1 = 0.146 | 703
351.95 K, Liquid, x1 = 0.074 | 589
352.35 K, Gas, x1 = 0.019 | 324
360.85 K, Liquid, x1 = 0.116 | 620
362.25 K, Liquid, x1 = 0.177 | 704
362.35 K, Liquid, x1 = 0.224 | 770
365.65 K, Liquid, x1 = 0.09 | 582
366.25 K, Liquid, x1 = 0.074 | 532
369.65 K, Liquid, x1 = 0.397 | 952
372.55 K, Liquid, x1 = 0.495 | 955
